Measurements: patent publication US20240246932A1 (Merck Sharp & Dohme LLC, priority 2021, published 2024)

The molecules below were run against human NaV 1.8 channels stably expressed in HEK 293 cells (Homo sapiens (Human), UniProt Q9Y5Y9) (assay: Nav1.8 Qube automated patch-clamp assay). Settings: human NaV1.8 in HEK 293 cells, whole-cell voltage clamp, room temperature; read-out: IC50 values (nM) for Examples in the Nav1.8 Qube Assay.
Assay type: cell-based
Method: Compounds were tested on human NaV 1.8 and NaV1.5 channels stably expressed in human embryo kidney (HEK) 293 cells. Sodium current measurements on Qube® were conducted as follows: automated 384-well patch-clamp assays on the Qube® platform (Sophion Biosciences) were used to measure the inhibition of sodium flow through human NaV1.8 and NaV1.5 channels. Whole-cell voltage-clamp recordings were performed in QChips® (Sophion Biosciences) at room temperature. NaV1.8 current measurements on Qube® were obtained as follows: NaV1.8 currents were elicited with a 10 second 1 Hertz (Hz) pulse train from a holding potential of −90 millivolts (mV), delivered to the cells once per minute in the control condition (DMSO only) and after compound addition. The 1 hertz pulse train stimulation consisted of ten test pulses to 10 millivolt (mV) for 20 milliseconds (ms), each of which was followed by a 980 millisecond repolarization to −67 millivolts. At the end of the 10 second pulse train stimulation, a 5 second hyperpolarization step to −100 millivolt (mV) was used to recover NaV1.8 from fast inactivation. The peak currents elicited by the 1st and 10th test pulses were used to determine IC50 values for resting inhibition and inactivated state inhibition. NaV1.5 current measurements on Qube® were obtained as follows: NaV1.5 currents were elicited with a 20 second 3 Hertz pulse train in the control condition (DMSO only) and after compound addition. The pulse train consisted of sixty 20 millisecond test pulses to 0 millivolt from a holding potential of −80 millivolt (mV). The average peak currents elicited by the last 3 test pulses were used to determine IC50 values for NaV1.5 inhibition.
The following buffers were used for the Qube® recordings: External buffer for NaV1.8 Qube® recording: 150 NaCl, 2 CaCl2, 5 KCl, 1 MgCl2, 10 HEPES, 12 Dextrose; External buffer for Qube® NaV1.5 recording: 120 N-Methyl-D-Glucamine, 40 NaCl, 1 KCl, 2.7 CaCl2), 5 HEPES, 0.5 MgCl2; and Internal buffer for Qube® recording: 120 CsF, 30 CsCl, 10 EGTA, 5 HEPES, 5 NaF, 2 MgCl2.
For all Qube® experiments offline analysis was used to determine percent inhibition as a function of drug concentration. IC50 values were determined by fitting to the Hill equation.

Sequence of human NaV 1.8 channels stably expressed in HEK 293 cells (Q9Y5Y9 whole entry): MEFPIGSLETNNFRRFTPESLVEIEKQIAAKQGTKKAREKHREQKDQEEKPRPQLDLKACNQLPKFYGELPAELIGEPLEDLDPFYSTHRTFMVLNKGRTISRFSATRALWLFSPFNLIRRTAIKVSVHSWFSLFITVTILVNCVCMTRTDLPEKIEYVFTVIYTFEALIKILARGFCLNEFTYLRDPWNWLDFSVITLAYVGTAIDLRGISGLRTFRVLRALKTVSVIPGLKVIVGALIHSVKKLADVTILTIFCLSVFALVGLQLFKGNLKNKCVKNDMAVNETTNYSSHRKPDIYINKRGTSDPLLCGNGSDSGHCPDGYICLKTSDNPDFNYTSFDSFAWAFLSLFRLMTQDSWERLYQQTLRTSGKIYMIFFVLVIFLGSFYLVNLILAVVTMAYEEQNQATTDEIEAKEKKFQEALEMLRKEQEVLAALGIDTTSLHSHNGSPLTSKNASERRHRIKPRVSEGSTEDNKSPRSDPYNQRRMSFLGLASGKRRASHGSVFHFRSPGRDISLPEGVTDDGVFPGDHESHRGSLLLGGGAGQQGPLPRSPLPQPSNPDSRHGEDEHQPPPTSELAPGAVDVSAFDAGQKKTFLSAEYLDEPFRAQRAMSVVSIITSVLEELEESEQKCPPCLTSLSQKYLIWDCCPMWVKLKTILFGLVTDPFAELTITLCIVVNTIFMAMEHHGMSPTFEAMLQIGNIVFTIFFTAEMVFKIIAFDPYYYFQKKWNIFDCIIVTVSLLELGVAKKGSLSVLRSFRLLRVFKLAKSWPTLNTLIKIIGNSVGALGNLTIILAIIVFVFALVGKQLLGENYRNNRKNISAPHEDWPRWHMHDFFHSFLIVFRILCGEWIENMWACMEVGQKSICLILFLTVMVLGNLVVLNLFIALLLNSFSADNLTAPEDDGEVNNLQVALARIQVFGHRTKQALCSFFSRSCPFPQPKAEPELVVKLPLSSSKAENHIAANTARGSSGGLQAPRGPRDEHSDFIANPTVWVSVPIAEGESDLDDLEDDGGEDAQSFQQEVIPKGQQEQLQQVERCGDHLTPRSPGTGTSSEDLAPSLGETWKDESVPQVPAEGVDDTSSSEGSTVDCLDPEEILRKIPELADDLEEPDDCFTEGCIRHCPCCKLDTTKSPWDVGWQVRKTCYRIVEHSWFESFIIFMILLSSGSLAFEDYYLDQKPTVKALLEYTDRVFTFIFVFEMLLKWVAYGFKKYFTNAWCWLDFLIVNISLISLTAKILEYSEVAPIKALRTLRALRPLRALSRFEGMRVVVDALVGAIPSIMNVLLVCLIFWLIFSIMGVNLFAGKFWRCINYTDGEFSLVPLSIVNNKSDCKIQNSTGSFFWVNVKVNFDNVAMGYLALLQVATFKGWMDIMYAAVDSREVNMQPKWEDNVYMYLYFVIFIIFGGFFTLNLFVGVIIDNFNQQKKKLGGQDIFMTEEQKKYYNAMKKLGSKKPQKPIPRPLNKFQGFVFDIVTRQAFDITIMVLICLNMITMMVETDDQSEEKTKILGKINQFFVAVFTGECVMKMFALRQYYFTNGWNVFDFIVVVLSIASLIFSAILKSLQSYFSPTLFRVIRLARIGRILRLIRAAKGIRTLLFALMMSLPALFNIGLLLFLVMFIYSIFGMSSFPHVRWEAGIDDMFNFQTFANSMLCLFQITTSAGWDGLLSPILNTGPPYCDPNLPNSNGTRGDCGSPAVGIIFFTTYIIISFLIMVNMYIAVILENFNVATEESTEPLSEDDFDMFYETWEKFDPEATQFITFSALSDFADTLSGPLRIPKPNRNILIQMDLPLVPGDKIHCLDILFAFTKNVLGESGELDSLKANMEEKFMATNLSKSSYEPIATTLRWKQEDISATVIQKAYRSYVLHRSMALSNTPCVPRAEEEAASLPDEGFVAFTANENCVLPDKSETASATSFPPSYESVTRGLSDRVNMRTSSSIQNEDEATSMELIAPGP

Compound | IC50 [nM]
O=C1CN(C(=O)NC(c2ccc(OCC(F)(F)F)nc2)c2ccc(F)c(Cl)c2)CCN1 (single isomer, unassigned) [Example 2A, N-((R or S)-(3-chloro-4-fluorophenyl)(6-(2,2,2-trifluoro-ethoxy)pyridin-3-yl)methyl)-3-oxopiperazine-1-carboxamide] | 8.98
O=C1CN(C(=O)NC(c2ccc(OCC(F)(F)F)nc2)c2ccc(F)c(Cl)c2)CCN1 (single isomer, unassigned) [Example 2B, N-((S or R)-(3-chloro-4-fluorophenyl)(6-(2,2,2-trifluoroethoxy)pyridin-3-yl)methyl)-3-oxopiperazine-1-carboxamide] | 123
C[C@@H]1C(=O)NCCN1C(=O)NC(c1ccc(OCC(F)(F)F)nc1)c1ccc(F)c(Cl)c1 (single isomer, unassigned) [Example 3A, (2R)-N-((R or S)-(3-chloro-4-fluorophenyl)(6-(2,2,2-trifluoro-ethoxy)pyridin-3-yl)methyl)-2-methyl-3-oxopiperazine-1-carboxamide] | 2.22
C[C@@H]1C(=O)NCCN1C(=O)NC(c1ccc(OCC(F)(F)F)nc1)c1ccc(F)c(Cl)c1 (single isomer, unassigned) [Example 3B, (2R)-N-((S or R)-(3-chloro-4-fluorophenyl)(6-(2,2,2-trifluoro-ethoxy)pyridin-3-yl)methyl)-2-methyl-3-oxopiperazine-1-carboxamide] | 21.9
C[C@@H]1C(=O)NCCN1C(=O)NC(c1ccc(Cl)cc1)c1ccc(OCC(F)(F)F)nc1 (single isomer, unassigned) [Example 5A, (2R)-N-((R or S)-(4-chlorophenyl)(6-(2,2,2-trifluoro-ethoxy)pyridin-3-yl)methyl)-2-methyl-3-oxopiperazine-1-carboxamide] | 17.6
C[C@@H]1C(=O)NCCN1C(=O)NC(c1ccc(Cl)cc1)c1ccc(OCC(F)(F)F)nc1 (single isomer, unassigned) [Example 5B, (2R)-N-((S or R)-(4-chlorophenyl)(6-(2,2,2-trifluoro-ethoxy)pyridin-3-yl)methyl)-2-methyl-3-oxopiperazine-1-carboxamide] | 28.9
O=C1CN(C(=O)NC(c2ccc(OCC(F)(F)F)nc2)c2ccc(F)c(Cl)c2F)CCN1 (single isomer, unassigned) [Example 8A, N-((R or S)-(3-chloro-2,4-difluorophenyl)(6-(2,2,2-trifluoroethoxy)pyridin-3-yl)methyl)-3-oxopiperazine-1-carboxamide] | 4.46
O=C1CN(C(=O)NC(c2ccc(OCC(F)(F)F)nc2)c2ccc(F)c(Cl)c2F)CCN1 (single isomer, unassigned) [Example 8B, N-((S or R)-(3-chloro-2,4-difluorophenyl)(6-(2,2,2-trifluoroethoxy)pyridin-3-yl)methyl)-3-oxopiperazine-1-carboxamide] | 136
C[C@@H]1C(=O)NCCN1C(=O)NC(c1ccc(Cl)cc1)c1cccc(C(F)(F)F)n1 (single isomer, unassigned) [Example 9A, (2R)-N-((R or S)-(4-chlorophenyl)(6-(trifluoromethyl)pyridin-2-yl)methyl)-2-methyl-3-oxo-piperazine-1-carboxamide] | 61.6
C[C@@H]1C(=O)NCCN1C(=O)NC(c1ccc(Cl)cc1)c1cccc(C(F)(F)F)n1 (single isomer, unassigned) [Example 9B, (2R)-N-((S or R)-(4-chlorophenyl)(6-(trifluoromethyl)pyridin-2-yl)methyl)-2-methyl-3-oxopiperazine-1-carboxamide] | 8.03
C[C@@H]1C(=O)NCCN1C(=O)NC(c1ccc(F)c(Cl)c1)c1ccc2nc(C(F)(F)F)cn2c1 (single isomer, unassigned) [Example 11A, (2R)-N-((R or S)-(3-chloro-4-fluoro-phenyl)(2-(trifluoro-methyl)imidazo[1,2-a]pyridin-6-yl)-methyl)-2-methyl-3-oxopiperazine-1-carboxamide] | 67.4
C[C@@H]1C(=O)NCCN1C(=O)NC(c1ccc(F)c(Cl)c1)c1ccc2nc(C(F)(F)F)cn2c1 (single isomer, unassigned) [Example 11B] | 196

Other lines, results leading:

IC50 [nM] | Compound
1.09 | C[C@@H]1C(=O)NCCN1C(=O)NC(c1ccc(OCC(F)(F)F)nc1)c1ccc(F)c(Cl)c1F (single isomer, unassigned) [Example 1A]
30.9 | C[C@@H]1C(=O)NCCN1C(=O)NC(c1ccc(OCC(F)(F)F)nc1)c1ccc(F)c(Cl)c1F (single isomer, unassigned) [Example 1B]
3.9 | C[C@@H]1C(=O)NCCN1C(=O)NC(c1ccc(OC(F)(F)F)nc1)c1ccc(F)c(Cl)c1F (single isomer, unassigned) [Example 4A, (2R)-N-((R or S)-(3-chloro-2,4-difluorophenyl)(6-(trifluoromethoxy)pyridin-3-yl)methyl)-2-methyl-3-oxopiperazine-1-carboxamide]
25.7 | C[C@@H]1C(=O)NCCN1C(=O)NC(c1ccc(OC(F)(F)F)nc1)c1ccc(F)c(Cl)c1F (single isomer, unassigned) [Example 4B, (2R)-N-((S or R)-(3-chloro-2,4-difluorophenyl)(6-(trifluoromethoxy)pyridin-3-yl)methyl)-2-methyl-3-oxopiperazine-1-carboxamide]
20 | C[C@@H]1C(=O)NCCN1C(=O)NC(c1ccc(OCC(F)(F)F)nc1)c1ccc(F)c(F)c1 (single isomer, unassigned) [Example 6A, (2R)-N-((R or S)-(3,4-difluorophenyl)(6-(2,2,2-trifluoro-ethoxy)pyridin-3-yl)methyl)-2-methyl-3-oxopiperazine-1-carboxamide]
128 | C[C@@H]1C(=O)NCCN1C(=O)NC(c1ccc(OCC(F)(F)F)nc1)c1ccc(F)c(F)c1 (single isomer, unassigned) [Example 6B, (2R)-N-((S or R)-(3,4-difluorophenyl)(6-(2,2,2-trifluoro-ethoxy)pyridin-3-yl)methyl)-2-methyl-3-oxopiperazine-1-carboxamide]
10.8 | C[C@@H]1C(=O)NCCN1C(=O)NC(c1ccc(OCC(F)(F)F)nc1)c1cc(F)c(F)c(Cl)c1 (single isomer, unassigned) [Example 7A, (2R)-N-((R or S)-(3-chloro-4,5-difluorophenyl)(6-(2,2,2-trifluoro-ethoxy)pyridin-3-yl)methyl)-2-methyl-3-oxopiperazine-1-carboxamide]
19.6 | C[C@@H]1C(=O)NCCN1C(=O)NC(c1ccc(OCC(F)(F)F)nc1)c1cc(F)c(F)c(Cl)c1 (single isomer, unassigned) [Example 7B, (2R)-N-((S or R)-(3-chloro-4,5-difluoro-phenyl)(6-(2,2,2-tri-fluoroethoxy)pyridin-3-yl)methyl)-2-methyl-3-oxo-piperazine-1-carboxamide]
1.18 | C[C@@H]1C(=O)NCCN1C(=O)NC(c1cnc(OCC(F)(F)F)c(F)c1)c1ccc(F)c(Cl)c1F (single isomer, unassigned) [Example 10A, (2R)-N-((R or S)-(3-chloro-2,4-difluorophenyl)(5-fluoro-6-(2,2,2-trifluoroethoxy)pyridin-3-yl)methyl)-2-methyl-3-oxopiperazine-1-carboxamide]
28 | C[C@@H]1C(=O)NCCN1C(=O)NC(c1cnc(OCC(F)(F)F)c(F)c1)c1ccc(F)c(Cl)c1F (single isomer, unassigned) [Example 10B, (2R)-N-((S or R)-(3-chloro-2,4-difluorophenyl)(5-fluoro-6-(2,2,2-trifluoroethoxy)pyridin-3-yl)methyl)-2-methyl-3-oxopiperazine-1-carboxamide]
9.24 | C[C@@H]1C(=O)NCCN1C(=O)NC(c1cnc(OCC(F)(F)F)nc1)c1ccc(F)c(Cl)c1F (single isomer, unassigned) [Example 12A]
501 | C[C@@H]1C(=O)NCCN1C(=O)NC(c1cnc(OCC(F)(F)F)nc1)c1ccc(F)c(Cl)c1F (single isomer, unassigned) [Example 12B]
2.13 | C[C@@H]1C(=O)NCCN1C(=O)NC(c1cnc(OCC(F)(F)F)s1)c1ccc(F)c(Cl)c1F (single isomer, unassigned) [Example 13A, (2R)-N-((R or S)-(3-chloro-2,4-difluoro-phenyl)(2-(2,2,2-tri-fluoroethoxy)thiazol-5-yl)methyl)-2-methyl-3-oxopiperazine-1-carboxamide]
